Experimental data from US6608111B1, “Method for treating or preventing prostatic conditions” (Southern Illinois University Office of Research, …, priority 1998, dated 2003).
“Also recorded” adds a separate entry of the source.

Legend:
[1] = test system: primary porcine granulosa cells; assay: In situ apoptosis assay in primary porcine granulosa cells; format: cell-based; settings: for mean apoptosis (% area): 24 hr treatment, 0.1, 1 and 10 μM combined, serum-free MEM, controls 63.4% / 68.4%
Protocol: Porcine ovaries were obtained from local packing plants and transported to the laboratory on ice-cold Hank's balanced salt solution (HBSS). Each of the follicles was aspirated with an insulin syringe, and the follicular fluid was centrifuged at 3000 rpm and 4° C. for 15 min. The supernatant was poured off and the cells were washed in 5 mls of cold HBSS and centrifuged for another 10 min. The cells were again resuspended in HBSS, and the number of viable cells counted under the microscope using a hematocytometer. Once the number of cells was determined, the cells were centrifuged again for 10 min. and resuspended in the appropriate volume of Eagle's minimum essential media (MEM) containing 10% fetal bovine serum (FBS) and antibiotic/antimycotics. The cells were plated at 250,000 per well in 8 chamber microscope slides (Nunc, Naperville, Ill.) which were pre-treated with poly-L-lysine for 10 min. The slides were incubated at 5% CO2/95% air at 37° C. Approximately 12 hours later, the medium was removed by vacuum and replaced with pre-warmed, serum-free MEM. Cells were then treated for 2-3 hrs with MEM only to wash out any estrogen effects from the serum (Winters et al. (1994) Biol. Reprod. 50 (Suppl. 1):113; Suttner et al. (1998) Biol. Reprod. 59 (Suppl.): (Accepted for publication). Following serum-free MEM treatment, cells were treated for 24 hr with (+) or (−) enantiomers of Z-BDDA or estradiol at 0. 1, 1, and 10 μM, or EtOH vehicle control in serum-free MEM. Cells were subsequently processed using an in situ apoptosis assay kit (Apotag-Plus In Situ Apoptosis Kit-Peroxidase, Edition 1.1., Oncor, Gaithersburg, Md., 1995) to study ovarian apoptosis (Suttner et al., 1998). The slides were washed in two changes of PBS for 5 min each, and then quenched in 2% hydrogen peroxide in methanol for 5 min. at room temperature. After pre-treatment with an equilibration buffer, 13 ul of Terminal deoxynucleotidyl Transferase (TdT) diluted with reaction buffer and distilled water were added, and the slides were incubated for 1 h at 37° C. in a humidified chamber. After this 1 h period, the slides were put in pre-warmed stop wash buffer in the incubator for 30 min to stop the reaction. Next, the slides were washed in three changes of PBS for 5 min. each, and the anti-digoxigenin peroxidase was placed on the slides for 30 min. in a humidified chamber at room temperature. […] The degree of apoptosis for the calorimetric apoptosis assay was quantified microscopically using an image analysis system (Optimas 5.23, Optimas Users Guide, 5th Edition, Redmond, Wash.). Ten measurements (captured images) were taken for each concentration based on a pre-determined grid. […] Percentage area of each color was then quantitated using the image analysis system. […]

male Sprague-Dawley rats = assay: Example 4: effects on prostate and testis of male rats, 6 weeks; format: in vivo, rat; settings: for testis histology: Leydig cells / testis histology: spermatogenesis: FIGS. 5a-f; for Prostate Weight as % Body Weight / Seminal Vesicle Weight as % Body Weight / Testis Weight as % Body Weight / Body Weight (g): 0.1 ug/g of body weight once a day, mean ± SEM; for Body Weight (g): n = 10
Protocol: Sixty male Sprague-Dawley rats, 7-8 weeks of age, were randomly assigned to groups of ten animals. Each group was randomly assigned to one of six treatments: Vehicle control (C), Estradiol-17β(E), (−)-Z-BDDA, (+)-Z-BDDA, (−)-HAA, and (+)-HAA. The compounds were all administered at a dose of 0.1 μg/g of body weight in 0.1 cc once a day for 6 weeks. The estrogenic compounds were dissolved in 10% ethanol and 90% olive oil vehicle. A temperature of 21° C. and an artificial 12 h light-dark cycle were maintained in the animal room. All animals were maintained on standard chow in powdered form for six weeks, and then sacrificed after an overnight fast under i.p. pentobarbitol anesthesia (50 mg/kg). Animal weight was measured weekly during the study. During sacrifice, blood was collected via cardiac puncture. Immediately following sacrifice, the fat pads, livers, pituitaries, testes, seminal vesicles, and prostate were removed and weighed, and snap frozen in liquid nitrogen. Prostates and one testis from 2-3 animals in each treatment group were fixed in 10% formalin for histological examination. These tissues were fixed overnight, blocked in paraffin, sectioned at 4 μm, stained with Hematoxylin and Eodsin, cover slipped, and examined microscopically. Quantitative results were subjected to an analysis of variance and means separated by a Tukey's Test (SYSTAT, Chicago, Ill.).

dialyzed LDL = assay: Oxidized LDL lag time assay (antioxidant capacity); set-up: species or system human; settings: 3 μM Cu2SO4, drugs at 10^−4, 10^−5, 10^−6, and 10^−7 M
Protocol: Experiments were carried out on dialyzed LDL collected from four fasted persons. The LDL was used within 10 days of dialysis. The oxidizing agent was 3 μM […]; phosphate buffered saline was used to control pH, and all drugs were dissolved in ethanol; final concentrations of each drug in the assays were 10^−4, 10^−5, 10^−6, and 10^−7 M. The combined results are shown in FIG. 6.

| SMILES | percent apoptosis ([1]; 24 hr treatment at 10 μM) [%] | mean apoptosis (% area) [1] [%] | testis histology: Leydig cells (male Sprague-Dawley rats; 0.1 μg/g daily) | testis histology: spermatogenesis (male Sprague-Dawley rats; 0.1 μg/g daily) | Prostate Weight as % Body Weight (male Sprague-Dawley rats) | Seminal Vesicle Weight as % Body Weight (male Sprague-Dawley rats) | Testis Weight as % Body Weight (male Sprague-Dawley rats) | Body Weight (g) (male Sprague-Dawley rats) | antioxidant activity (shift in lag time of LDL oxidation) (dialyzed LDL) | prostate histology (alveoli) (male Sprague-Dawley rats; 0.1 μg/g daily, FIGS. 4a-f) | gross testes weights unadjusted for bodyweight (male Sprague-Dawley rats; 0.1 μg/g daily, data not shown) |
| --- | --- | --- | --- | --- | --- | --- | --- | --- | --- | --- | --- |
| C[C@]12CCC3c4ccc(O)cc4CCC3[C@@H]1CCC2O (single isomer, unassigned; (+)) [estradiol, (+)-17β-estradiol, reference compound] | 23.8 | 46.5 | small | halted at round (Golgi phase) spermatids | 0.05 ± 0.00^1 % Body Weight | 0.02 ± 0.00^1 % Body Weight | 0.49 ± 0.13^1,4 % Body Weight | 207.2 ± 4.6^1 g | very little antioxidant activity |  |  |
| CC[C@H]1c2ccc3cc(O)ccc3c2CC[C@@]1(C)C(=O)O [(+)-Z-BDDA, (+)-Z-bisdehydrodoisynolic acid] |  | 61.1 | normal | normal | 0.05 ± 0.01^1 % Body Weight | 0.23 ± 0.12^2 % Body Weight | 0.98 ± 0.15 % Body Weight | 234.8 ± 10.1^1,2 g | significant antioxidant activity | normal alveoli; also recorded: tubules and alveoli being slightly smaller | lighter (P<0.05) than those in control rats |
